Results on 37 molecules are retold here after US7572786B2, “Substituted 1-piperidin-3-yl-4-piperidin-4-yl-piperazine derivatives and their use as neurokinin antagonists” (Janssen Pharmaceutica, N.V., priority 2002, dated 2009).

The target of one assay is NK1 (Homo sapiens, UniProt P25103). As to the kind of experiment: Signal transduction (ST), intracellular Ca++ (FLIPR), NK1 antagonism. The class given is cell-based. The following applies: for IC50: read-out: pIC50 NK1 (converted). As to the method: (§1) This test evaluates in vitro functional NK1 antagonistic activity. For the measurements of intracellular Ca^++ concentrations the cells were grown on 96-well (black wall/transparent bottom) plates from Costar for 2 days until they reached confluence. The cells were loaded with 2 μM Fluo3 in DMEM containing 0.1% BSA and 2.5 mM probenecid for 1 h at 37° C. […] The cells were preincubated with a concentration range of antagonists for 20 min at RT and Ca^++-signals after addition of the agonists were measured in a Fluorescence Image Plate Reader (FLIPR from Molecular Devices, Crawley, England). The peak of the Ca^++-transient was considered as the relevant signal and the mean values of corresponding wells were analysed as described below.
(§2) The sigmoidal dose response curves were analysed by computerised curve-fitting, using the GraphPad Program. […] For antagonist responses the IC50-value was calculated using non-linear regression.

Another assay has as its target T1, NK3 (Homo sapiens, UniProt P29371).
T1 sequence (P29371 1-465): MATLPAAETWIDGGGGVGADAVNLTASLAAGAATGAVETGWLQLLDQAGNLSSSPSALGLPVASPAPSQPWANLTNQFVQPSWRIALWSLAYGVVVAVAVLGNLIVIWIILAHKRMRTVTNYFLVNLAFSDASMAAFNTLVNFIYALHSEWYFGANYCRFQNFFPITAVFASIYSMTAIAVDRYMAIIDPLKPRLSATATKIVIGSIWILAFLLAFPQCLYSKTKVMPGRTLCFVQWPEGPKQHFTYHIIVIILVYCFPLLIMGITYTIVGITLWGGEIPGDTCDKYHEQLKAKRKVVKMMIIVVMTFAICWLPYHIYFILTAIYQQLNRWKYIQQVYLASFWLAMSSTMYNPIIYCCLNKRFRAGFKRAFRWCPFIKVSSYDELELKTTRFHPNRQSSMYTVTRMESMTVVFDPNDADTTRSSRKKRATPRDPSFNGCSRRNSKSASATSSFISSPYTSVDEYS
As to the kind of experiment: Signal transduction (ST), intracellular Ca++ (FLIPR), NK3. The class given is cell-based. The following applies: read-out: pIC50 NK3 (converted). On the procedure:
[The source words this procedure for another target and reports this target under the same test.] as §1, §2

NK1, sequence (P25103 whole entry): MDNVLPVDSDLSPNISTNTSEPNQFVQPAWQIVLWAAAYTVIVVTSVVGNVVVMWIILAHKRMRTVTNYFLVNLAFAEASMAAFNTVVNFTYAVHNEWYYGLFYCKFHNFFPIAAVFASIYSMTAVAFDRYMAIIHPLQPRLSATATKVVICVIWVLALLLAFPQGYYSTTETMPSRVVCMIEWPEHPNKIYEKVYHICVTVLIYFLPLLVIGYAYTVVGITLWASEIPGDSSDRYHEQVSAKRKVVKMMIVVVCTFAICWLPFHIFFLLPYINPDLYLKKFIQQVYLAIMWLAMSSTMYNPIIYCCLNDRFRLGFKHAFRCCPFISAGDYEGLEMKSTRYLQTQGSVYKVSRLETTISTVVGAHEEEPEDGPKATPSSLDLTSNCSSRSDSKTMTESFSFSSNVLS

`O=C(c1cc(C(F)(F)F)cc(C(F)(F)F)c1)N1CCC(N2CCN(C3CCCN(Cc4ccccc4)C3)CC2)CC1Cc1ccccc1` (centres unmarked) [Compound 1]: the IC50 on NK1 is 50.1 nM.

For the molecule `O=C(c1cc(C(F)(F)F)cc(C(F)(F)F)c1)N1CC[C@@H](N2CCCN(C3CCCN(S(=O)(=O)c4cccs4)C3)CC2)C[C@H]1Cc1ccccc1` (some centres unmarked) [Compound 120], the results for the IC50 on NK3 and on NK1 were 7940 nM and 200 nM, respectively.

Regarding `O=C(c1cc(C(F)(F)F)cc(C(F)(F)F)c1)N1CC[C@@H](N2CCCN(C3CCCN(Cc4ccccc4)C3)CC2)C[C@H]1Cc1ccccc1` (some centres unmarked) [Compound 110], the IC50 on NK1 is 200 nM.

For the molecule `O=C(c1cc(C(F)(F)F)cc(C(F)(F)F)c1)N1CCC(N2CCN(C3CCCNC3)CC2)CC1Cc1ccccc1` (single isomer, unassigned) [Compound 109], the “pIC50 NK1” value on NK1 is reported as 7.3.

Regarding `COc1ccc(S(=O)(=O)N2CCCC(N3CCN([C@H]4CCN(C(=O)c5cc(C(F)(F)F)cc(C(F)(F)F)c5)[C@H](Cc5ccccc5)C4)CC3)C2)cc1F` (some centres unmarked) [Compound 7], the IC50 at NK3 was 1000 nM; at NK1, 50.1 nM.

With `O=C(c1ccc(CCOCc2ccccc2)s1)N1CCCC(N2CCN(C3CCN(C(=O)c4cc(C(F)(F)F)cc(C(F)(F)F)c4)C(Cc4ccccc4)C3)CC2)C1` (centres unmarked) [Compound 93], the IC50 at NK3 was 5010 nM; on NK1 it was 126 nM.

As for `O=C(C1CC1)N1CCCC(N2CCCN([C@@H]3CCN(C(=O)c4cc(C(F)(F)F)cc(C(F)(F)F)c4)[C@H](Cc4ccccc4)C3)CC2)C1` (some centres unmarked) [Compound 114], the IC50 was 7940 nM on NK3 and 126 nM at NK1.

As for `O=C(c1cc(C(F)(F)F)cc(C(F)(F)F)c1)N1CC[C@H](N2CCCN(C3CCCN(Cc4ccccc4)C3)CC2)C[C@H]1Cc1ccccc1` (some centres unmarked) [Compound 111], the results for the IC50 on NK3 and on NK1 were 7940 nM and 251 nM, respectively.

With `O=C(c1ccccc1Cl)N1CCCC(N2CCCN([C@@H]3CCN(C(=O)c4cc(C(F)(F)F)cc(C(F)(F)F)c4)[C@H](Cc4ccccc4)C3)CC2)C1` (some centres unmarked) [Compound 119], on NK1, the IC50 is 126 nM.

Consider `Cc1cc(C)cc(C(=O)N2CCCC(N3CCN(C4CCN(C(=O)c5cc(C(F)(F)F)cc(C(F)(F)F)c5)C(Cc5ccccc5)C4)CC3)C2)c1` (centres unmarked) [Compound 3], for which the values for the IC50 at NK3 and at NK1 were 2000 nM and 79.4 nM, respectively.

As to `O=C(C1CCOC1)N1CCCC(N2CCN([C@H]3CCN(C(=O)c4cc(C(F)(F)F)cc(C(F)(F)F)c4)[C@H](Cc4ccccc4)C3)CC2)C1` (some centres unmarked) [Compound 16], the IC50 at NK3 is 1000 nM; on NK1 it was 12.6 nM.

With `Cc1c(S(=O)(=O)N2CCCC(N3CCN([C@H]4CCN(C(=O)c5cc(C(F)(F)F)cc(C(F)(F)F)c5)[C@H](Cc5ccccc5)C4)CC3)C2)cnn1-c1ccccc1` (some centres unmarked) [Compound 44], the IC50 at NK3 is 5010 nM; on NK1 it was 63.1 nM.

As to `CC(=O)N1CCC[C@H]1C(=O)N1CCCC(N2CCN([C@H]3CCN(C(=O)c4cc(C(F)(F)F)cc(C(F)(F)F)c4)[C@H](Cc4ccccc4)C3)CC2)C1` (some centres unmarked) [Compound 60], the IC50 is 6310 nM at NK3 and 5.01 nM at NK1.

With `O=C(c1cc(C(F)(F)F)cc(C(F)(F)F)c1)N1CC[C@H](N2CCN(C3CCCN(S(=O)(=O)c4ccc(-c5ccccn5)s4)C3)CC2)C[C@H]1Cc1ccccc1` (some centres unmarked) [Compound 34], the figures for the IC50 at NK3 and on NK1 were 2000 nM and 50.1 nM, respectively.

For `O=C(C1CCOC1)N1CCCC(N2CCCN(C3CCN(C(=O)c4cc(C(F)(F)F)cc(C(F)(F)F)c4)C(Cc4ccccc4)C3)CC2)C1` (single isomer, unassigned) [Compound 115], the IC50 on NK3 is 6310 nM; at NK1, 39.8 nM.

Regarding `COc1ccc(C)cc1S(=O)(=O)N1CCCC(N2CCN([C@H]3CCN(C(=O)c4cc(C(F)(F)F)cc(C(F)(F)F)c4)[C@H](Cc4ccccc4)C3)CC2)C1` (some centres unmarked) [Compound 31], the values for the IC50 on NK3 and on NK1 were 3160 nM and 25.1 nM, respectively.

On to `O=C(c1ccoc1)N1CCCC(N2CCCN(C3CCN(C(=O)c4cc(C(F)(F)F)cc(C(F)(F)F)c4)C(Cc4ccccc4)C3)CC2)C1` (single isomer, unassigned) [Compound 116], for which the IC50 was 3980 nM on NK3 and 50.1 nM at NK1.

For the molecule `O=C(c1ccccc1)N1CCCC(N2CCN([C@H]3CCN(C(=O)c4cc(C(F)(F)F)cc(C(F)(F)F)c4)[C@H](Cc4ccccc4)C3)CC2)C1` (some centres unmarked) [Compound 8], the IC50 on NK3 was 251 nM; on NK1, 20 nM.

As to `O=C(c1ccoc1)N1CCCC(N2CCN(C3CCN(C(=O)c4cc(C(F)(F)F)cc(C(F)(F)F)c4)C(Cc4ccccc4)C3)CC2)C1` (centres unmarked) [Compound 17], the IC50 was 2510 nM on NK3 and 31.6 nM at NK1.

Regarding `O=C(c1cc(C(F)(F)F)cc(C(F)(F)F)c1)N1CC[C@H](N2CCCN(C3CCCN(S(=O)(=O)c4cccs4)C3)CC2)C[C@H]1Cc1ccccc1` (some centres unmarked) [Compound 122], the IC50 on NK1 was 100 nM.

With `O=C(c1cc(C(F)(F)F)cc(C(F)(F)F)c1)N1CC[C@H](N2CCN(C3CCCN(C(=O)n4ccnc4)C3)CC2)C[C@H]1Cc1ccccc1` (some centres unmarked) [Compound 21], the IC50 was 1260 nM on NK3 and 20 nM on NK1.

Consider `O=C(c1cc(C(F)(F)F)cc(C(F)(F)F)c1)N1CC[C@H](N2CCN(C3CCCN(S(=O)(=O)c4ccccc4Cl)C3)CC2)C[C@H]1Cc1ccccc1` (some centres unmarked) [Compound 27], for which the IC50 is 1260 nM on NK3 and 20 nM on NK1.

In the case of `O=C(C(=O)N1CCCC(N2CCN(C3CCN(C(=O)c4cc(C(F)(F)F)cc(C(F)(F)F)c4)C(Cc4ccccc4)C3)CC2)C1)c1ccco1` (centres unmarked) [Compound 24], the IC50 is 3980 nM at NK3 and 25.1 nM on NK1.

With `O=C(c1ccccc1Cl)N1CCCC(N2CCCN([C@H]3CCN(C(=O)c4cc(C(F)(F)F)cc(C(F)(F)F)c4)[C@H](Cc4ccccc4)C3)CC2)C1` (some centres unmarked) [Compound 118], the IC50 at NK3 was 2510 nM; at NK1 it was 63.1 nM.

As to `Cc1cc(C(=O)N2CCCC(N3CCN([C@H]4CCN(C(=O)c5cc(C(F)(F)F)cc(C(F)(F)F)c5)[C@H](Cc5ccccc5)C4)CC3)C2)n(C)n1` (some centres unmarked) [Compound 42], the values for the IC50 on NK3 and at NK1 were 2510 nM and 7.94 nM, respectively.

Consider `Cc1cc(C)cc(C(=O)N2CCCC(N3CCN([C@@H]4CCN(C(=O)c5cc(C(F)(F)F)cc(C(F)(F)F)c5)[C@H](Cc5ccccc5)C4)CC3)C2)c1.O=C(O)/C=C/C(=O)O.O=C(O)/C=C/C(=O)O` (some centres unmarked) [Compound 13], for which the “pIC50 NK1” value against NK1 is reported as 6.3.

For `Cc1occc1C(=O)N1CCCC(N2CCN([C@H]3CCN(C(=O)c4cc(C(F)(F)F)cc(C(F)(F)F)c4)[C@H](Cc4ccccc4)C3)CC2)C1` (some centres unmarked) [Compound 19], the IC50 on NK3 was 2000 nM; at NK1, 25.1 nM.

Turning to `CC1(C(=O)N2CCCC(N3CCN([C@H]4CCN(C(=O)c5cc(C(F)(F)F)cc(C(F)(F)F)c5)[C@H](Cc5ccccc5)C4)CC3)C2)CC1` (some centres unmarked) [Compound 14], the IC50 on NK3 was 2000 nM; on NK1, 12.6 nM.

For `O=C(c1ccco1)N1CCCC(N2CCN([C@H]3CCN(C(=O)c4cc(C(F)(F)F)cc(C(F)(F)F)c4)[C@H](Cc4ccccc4)C3)CC2)C1` (some centres unmarked) [Compound 18], the IC50 on NK3 is 2510 nM; at NK1, 20 nM.

As to `CC(C)S(=O)(=O)N1CCCC(N2CCN([C@H]3CCN(C(=O)c4cc(C(F)(F)F)cc(C(F)(F)F)c4)[C@H](Cc4ccccc4)C3)CC2)C1` (some centres unmarked) [Compound 35], the IC50 at NK3 was 2000 nM; at NK1 it was 10 nM.

Regarding `O=C(c1cc(F)ccc1F)N1CCCC(N2CCN([C@H]3CCN(C(=O)c4cc(C(F)(F)F)cc(C(F)(F)F)c4)[C@H](Cc4ccccc4)C3)CC2)C1` (some centres unmarked) [Compound 12], the values for the IC50 on NK3 and on NK1 were 3160 nM and 25.1 nM, respectively.

In the case of `O=C(C1CCOC1)N1CCCC(N2CCCN(C3CCN(C(=O)c4cc(C(F)(F)F)cc(C(F)(F)F)c4)C(Cc4ccccc4)C3)CC2)C1` (single isomer, unassigned) [Compound 121], the IC50 was 7940 nM on NK3 and 126 nM at NK1.

For the molecule `Cc1csc(C)c1S(=O)(=O)N1CCCC(N2CCN([C@H]3CCN(C(=O)c4cc(C(F)(F)F)cc(C(F)(F)F)c4)[C@H](Cc4ccccc4)C3)CC2)C1` (some centres unmarked) [Compound 33], the IC50 is 1000 nM on NK3 and 39.8 nM on NK1.

Take `O=C(c1ccoc1)N1CCCC(N2CCCN(C3CCN(C(=O)c4cc(C(F)(F)F)cc(C(F)(F)F)c4)C(Cc4ccccc4)C3)CC2)C1` (single isomer, unassigned) [Compound 112]: the IC50 on NK1 is 158 nM.

Consider `O=C(c1cc(C(F)(F)F)cc(C(F)(F)F)c1)N1CCC(N2CCN(C3CCCNC3)CC2)CC1Cc1ccccc1` (centres unmarked) [Compound 2], for which the IC50 at NK1 is 20 nM.

In the case of `O=C(c1cc(C(F)(F)F)cc(C(F)(F)F)c1)N1CC[C@H](N2CCN(C3CCCN(S(=O)(=O)c4ccc(O)c(F)c4)C3)CC2)C[C@H]1Cc1ccccc1` (some centres unmarked) [Compound 107], the IC50 on NK3 was 1260 nM; at NK1, 15.8 nM.

For the molecule `O=C(c1cc(C(F)(F)F)cc(C(F)(F)F)c1)N1CCC(N2CCN(C3CCCNC3)CC2)CC1Cc1ccccc1` (centres unmarked) [Compound 108], at NK1, the IC50 is 79.4 nM.
